Source: PubChem BioAssay (NCI)
Values joined by “and” are separate entries in the source; they are usually repeats but may differ in a detail not shown here. Equal values may be shown once.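 Results reflect a 48-hour exposure of cells in 96-well plates to compound at five concentrations. GI50: concentration for 50% inhibition of growth. TGI marks complete inhibition of growth.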

Tests used:
Assay in all cases: DTP human tumour cell line panel, 48 h
LOX IMVI melanoma = system: LOX IMVI melanoma
HOP-62 NSCLC = system: HOP-62 NSCLC
COLO 205 colon = system: COLO 205 colon
T-47D breast = system: T-47D breast
SW-620 colon = system: SW-620 colon
RXF 393 renal = system: RXF 393 renal
SK-MEL-2 melanoma = system: SK-MEL-2 melanoma
U251 CNS = system: U251 CNS
SNB-19 CNS = system: SNB-19 CNS
M14 melanoma = system: M14 melanoma

SMILES	GI50 (LOX IMVI melanoma) [µM]	TGI (LOX IMVI melanoma) [µM]	GI50 (HOP-62 NSCLC) [µM]	TGI (HOP-62 NSCLC)	GI50 (COLO 205 colon) [µM]	TGI (COLO 205 colon) [µM]	GI50 (T-47D breast) [µM]	TGI (T-47D breast)	GI50 (SW-620 colon) [µM]	TGI (SW-620 colon) [µM]	GI50 (RXF 393 renal) [µM]	TGI (RXF 393 renal) [µM]	GI50 (SK-MEL-2 melanoma) [µM]	TGI (SK-MEL-2 melanoma)	GI50 (U251 CNS) [µM]	TGI (U251 CNS) [µM]	GI50 (SNB-19 CNS) [µM]	TGI (SNB-19 CNS) [µM]	GI50 (M14 melanoma) [µM]	TGI (M14 melanoma)
Cc1csc(-c2ccc3c(c2)COC3(CCCN(C)C)c2ccc(F)cc2)c1 (configuration not stated)	1.77	3.24	1.67	3.42 µM	2.59	5.64	1.85	4.62 µM	1.8	3.51	1.63	3.04	1.96	3.95 µM	1.85	3.76	1.75	3.31	1.81	3.59 µM
O=C(Nc1ccc(O)c(NS(=O)(=O)c2ccc(F)cc2)c1)c1ccc(-c2ccccc2)cc1	6.18	21.1	19.9	40.2 µM	15.6	31.2	3.07	18.4 µM	7.23	22.2	2.53	10.7	15.1	46.2 µM	9.07	26.1	14.4	34.2	7.32	21.6 µM
Cc1nc2sc(C(=O)Nc3cccc(Cl)c3C)c(N)c2cc1C(=O)c1ccccc1	0.331	> 50	0.296	> 50 µM	0.293	5.02	0.245	> 50 µM	0.209	> 50	0.198		0.329	> 50 µM	0.219	> 50	0.222	> 50	0.214	> 50 µM
CC#CC(=O)N[C@H]1CCCN(c2c(F)cc(C(N)=O)c3[nH]c(C)c(C)c23)C1	14.9	28.1	24.9	> 100 µM	21.3	47	13.6	44.3 µM	19.8	39	12.6	26.6	16.4	35.7 µM	17.3	36.3	15.3	28.6	18.6	42 µM
Cc1ccc(C(CC(=O)c2ccccc2)C(C(=O)c2ccccc2)C(c2ccc(C)cc2)C2C(=O)NC(=S)NC2=O)cc1 (configuration not stated)	17	> 50	> 50	> 50 µM	8.45	24.5	5.78	> 50 µM	19.4	> 50	30.3	> 50	7.96	> 50 µM	16.3	> 50	25.1	> 50	27.2	> 50 µM
O=c1cc(-c2ccccc2)nc2cc(-c3ccco3)[nH]n12	15.2	> 100	13.4	> 100 µM	6.65	44	4.44	> 100 µM	4.51	> 100	18.9	> 100	6.53	54.2 µM	4.74	> 100	12.6	> 100	9.45	> 100 µM
CNC(=O)c1c(NC(=O)c2ccc(C(C)C)cc2)sc2c1CCC(=O)C2	0.24	1.29	3.41	18.4 µM	0.288	0.914	0.341	2.3 µM	0.125	1.32	0.289	1.38	1.6	5.96 µM	0.253	1.42	0.453	5.71	0.454	2.03 µM
Cc1ccc(C)c(N2C(=O)C(=O)c3c(C)ccc(C)c32)c1		31.2		> 100 µM		> 100		68.3 µM		> 100		> 100		68.4 µM		35.2		> 100		39.6 µM
C=C(CN(C)C)C(=O)c1ccc(OC)cc1		25.4		51.9 µM		1.39		4.62 µM		5.08		24.9		13.2 µM		28.8		40.3		5.66 µM
COc1ccc2c(c1)c(-c1nc(-c3cn(C)c4ncccc34)cs1)cn2CCCCN1CCOCC1	1.32	2.68	1.76	3.64 µM	1.69	3.56	7.08	29 µM	0.745	1.92	1.2	2.65	2.05	4.29 µM	1.25	2.93	1.65	3.49	0.606	1.28 µM
COc1ccc2cc(C(=O)/C=C/c3ccco3)ccc2c1	54	> 100			51.2	> 100	> 100	> 100 µM	35	> 100	15.9	38.7	21.6	59.1 µM	28.5	97.4	> 100	> 100	0.19	12.6 µM
C/C=C1\C[C@@H]2C(OC)Nc3cc(O)c(OC)cc3C(=O)N2C1 (some centres not stated)	0.0035	0.0825	0.00296	0.0155 µM and < 0.0566 µM		0.0212		0.0783 µM and < 0.0265 µM	0.00703	36.8	0.00101	0.00219	0.00288	0.00713 µM and < 0.0159 µM	0.00353	10.1				0.0428 µM and < 0.032 µM
CNc1ccc(C(=O)CC(O)CCC(C)C2OC(=O)CC(O)CC(=O)CC(O)CC(O)CC(O)CC(O)CC3(O)CC(O)C(C(=O)NCCc4ccccn4)C(CC(OC4OC(C)C(O)C(N)C4O)/C=C/C=C/C=C/C=C\C=C/C=C/C=C/C2C)O3)cc1 (configuration not stated)	2.11	> 50			1.63	> 50	1.26	> 50 µM	> 41.5	> 50	1.05	30.4		> 50 µM	2.11	> 40.3	14.8	> 50	0.165	
Nc1nc(Cl)nc2c1ncn2C1CCC(COP(=O)(O)OP(=O)(O)OP(=O)(O)O)O1 (configuration not stated)		78.5		51.1 µM		41.7		> 100 µM		> 100		75				> 100		> 100		36.7 µM
